Results: the NIST ThermoML archive (doi:10.1007/s10765-013-1469-0)
± gives the expanded uncertainty stated by the source.

Test: refractive index (Na D-line) (dimensionless); xn = mol fraction of the nth substance listed
Settings: 101 kPa, Liquid, Standard Abbe refractometry

COCCOCCOCCOCCOC [2,5,8,11,14-pentaoxapentadecane] + CCCCO
refractive index
Settings	288.15 K	293.15 K	298.15 K	303.15 K	308.15 K	313.15 K	318.15 K	323.15 K	328.15 K	333.15 K
x2 = 0	1.4345 ± 0.00033	1.43238 ± 0.00033	1.43027 ± 0.00033	1.42815 ± 0.00033	1.42603 ± 0.00033	1.42394 ± 0.00033	1.42183 ± 0.00033	1.41973 ± 0.00033	1.41765 ± 0.00033	1.41553 ± 0.00033
x2 = 0.1013	1.43292 ± 0.00033	1.43079 ± 0.00033	1.42868 ± 0.00033	1.42658 ± 0.00033	1.42448 ± 0.00033	1.42237 ± 0.00033	1.42027 ± 0.00033	1.41818 ± 0.00033	1.41611 ± 0.00033	1.41403 ± 0.00033
x2 = 0.2236	1.43083 ± 0.00033	1.42871 ± 0.00033	1.42659 ± 0.00033	1.42448 ± 0.00033	1.42237 ± 0.00033	1.42024 ± 0.00033	1.41815 ± 0.00033	1.41604 ± 0.00033	1.41396 ± 0.00033	1.41186 ± 0.00033
x2 = 0.3036	1.42941 ± 0.00033	1.4273 ± 0.00033	1.42517 ± 0.00033	1.42306 ± 0.00033	1.42094 ± 0.00033	1.41881 ± 0.00033	1.41673 ± 0.00033	1.41461 ± 0.00033	1.41251 ± 0.00033	1.4104 ± 0.00033
x2 = 0.4131	1.42694 ± 0.00033	1.42482 ± 0.00033	1.42271 ± 0.00033	1.42058 ± 0.00033	1.41846 ± 0.00033	1.41635 ± 0.00033	1.41424 ± 0.00033	1.4121 ± 0.00033	1.40998 ± 0.00033	1.40784 ± 0.00033
x2 = 0.5065	1.42465 ± 0.00033	1.42256 ± 0.00033	1.42044 ± 0.00033	1.4183 ± 0.00033	1.41616 ± 0.00033	1.41403 ± 0.00033	1.41192 ± 0.00033	1.40977 ± 0.00033	1.40763 ± 0.00033	1.40547 ± 0.00033
x2 = 0.5996	1.42188 ± 0.00033	1.41981 ± 0.00033	1.41772 ± 0.00033	1.41558 ± 0.00033	1.41346 ± 0.00033	1.41132 ± 0.00033	1.40924 ± 0.00033	1.40709 ± 0.00033	1.40491 ± 0.00033	1.40273 ± 0.00033
x2 = 0.7007	1.41822 ± 0.00033	1.41614 ± 0.00033	1.41408 ± 0.00033	1.41199 ± 0.00033	1.40985 ± 0.00033	1.40775 ± 0.00033	1.40562 ± 0.00033	1.40351 ± 0.00033	1.40133 ± 0.00033	1.39917 ± 0.00033
x2 = 0.7991	1.41381 ± 0.00033	1.41175 ± 0.00033	1.40972 ± 0.00033	1.40769 ± 0.00033	1.40559 ± 0.00033	1.40349 ± 0.00033	1.40133 ± 0.00033	1.39924 ± 0.00033	1.39712 ± 0.00033	1.39497 ± 0.00033
x2 = 0.8996	1.40823 ± 0.00033	1.40619 ± 0.00033	1.40418 ± 0.00033	1.40216 ± 0.00033	1.40005 ± 0.00033	1.39795 ± 0.00033	1.39583 ± 0.00033	1.39374 ± 0.00033	1.3916 ± 0.00033	1.38936 ± 0.00033
